Each compound was assayed on phosphate uptake by rabbit intestinal Brush Border Membrane Vesicles (BBMV) (assay: 33PO4 Uptake in Rabbit Intestinal BBMV High Throughput Screening (HTS) assay). Settings: inhibition of 33PO4 uptake, 15 minutes.
Assay type: biochemical
Source text: The activity of compounds of the present invention can be assessed using suitable assays, such as the ^33PO4 Uptake In Rabbit Intestinal BBMV High Throughput Screening (HTS) assay, as described in the Example 28. Compounds of the present invention can also be identified by virtue of their ability to inhibit the absorption of phosphate in vivo, for example, in the gastrointestinal tract of a laboratory animal.
The following example outlines the procedures required for in vitro measurement of the inhibition of phosphate uptake by rabbit intestinal Brush Border Membrane Vesicles (BBMV).
Rabbit Intestinal Brush Border Membrane Vesicles (BBMV) were isolated from mucosal scrapings of the upper small intestine (duodenum) of male New Zealand White rabbits. The scrapings were divided into 2 g aliquots in cryopreservation vials, frozen in liquid nitrogen, and stored at −80° C.
The following procedure was performed for each 2 g sample of BBMV mucosal scraping. Buffer volumes and container sizes were adjusted appropriately for the number of 2 g samples used. The entire preparation was performed on ice, unless otherwise stated.
Mucosal scrapings (2 g per tube) were thawed in a 37° C. water bath for 3 minutes and then placed on ice. The scrapings were suspended with a total of 7.5 mL of 300 MET, and transferred to a 250 mL Coming tube on ice. To the suspension was added 30 mL cold (4° C.) deionized water (dH2O). The suspension was homogenized with a tissue homogenizer (Polytron) on high speed for two minutes. A stir bar and MgCl2 (81.3 mg) were added. The suspension was mixed well by inverting the closed tube. The suspension was stirred on ice, ensuring that a good vortex is achieved with the stir bar, for 40 minutes. The suspension was transferred to a chilled centrifuge tube and spun at 4000×g for 15 minutes. The supernatant was transferred to a new chilled centrifuge tube and spun at 32000×g for 30 minutes. The supernatant was discarded and the pellet was re-suspended with 34 mL cold 60 MET. The suspension was homogenized with a Dounce homogenizer with 8 strokes. The suspension was transferred to a fresh 250 mL Coming tube. A stir bar and 69.1 mg MgCl2 were added. The suspension was stirred well on ice for 10 minutes. The suspension was transferred to a chilled centrifuge tube and spun at 4000×g for 15 minutes. The supernatant was transferred to a new chilled centrifuge tube and spun at 32000×g for 30 minutes. The supernatant was discarded. At this stage, the preparation could be continued or this pellet (P4) could be frozen in liquid nitrogen and stored at −80° C. When needed, this pellet could be allowed to thaw at room temperature for 5 minutes. Continuing the preparation, the pellet was re-suspended with 34 mL cold 280 MH. The suspension was homogenized in a Dounce homogenize with 8 strokes. The suspension was transferred to a new chilled centrifuge tube and spun at 32000×g for 30 minutes. The supernatant was discarded. To the pellet was added 500 μL 280 MH and the pellet was re-suspended very carefully with a 1 mL tuberculin syringe with a 25-gauge needle with care not to create bubbles. Once the entire pellet was suspended, the suspension was transferred to a chilled 1.5 mL microfuge tube. The suspension was evenly dispersed by bringing the suspension up into the syringe through the 25-gauge needle, and back out again eight times with care not to create bubbles. The total protein concentration was determined by performing a Bradford Protein Assay. Using that value, the BBMV were diluted with 280 MH to reach approximately 0.5-2.0 mg/mL. The solution was used as soon as possible for uptake studies.
^33PO4 Uptake in Rabbit Intestinal BBMV
The following experiment was performed using a Beckman Multimek 96-tip robotic pipettor. The following outlines the preparation required to screen one 96-well plate of compounds. However, multiple plates could be screened in one experiment. […]

| IC50 [µM] | Structure (SMILES) |
| --- | --- |
| < 100 | CCCCCCCCCCP(=O)(O)CP(=O)(O)O [Compound 1] |
| < 100 | C=CCCCCCCCCCP(=O)(O)C(F)(F)P(=O)(O)O [Compound 2] |
| < 100 | C=CCCCCCCCCCP(=O)(O)C(F)P(=O)(O)O (centres unmarked) [Compound 3] |
| < 100 | C=CCCCCCCCCCP(=O)(O)CP(=O)(O)O [Compound 4] |
| 100 to 300 | C=CCCC(CCCCCCCCCC)P(=O)(O)CP(=O)(O)O (centres unmarked) [Compound 11] |
| 100 to 300 | C=CCCCCCCCCCP(=O)(O)CP(=O)(O)CP(=O)(O)O [Compound 16] |
| 300 to 700 | C=CCCCP(=O)(O)C(CCCCCCCCCC)P(=O)(O)O (centres unmarked) [Compound 17] |
| 700 to 1000 | C=CCCCCCCCCCP(=O)(O)C(CCCCC)P(=O)(O)O (centres unmarked) [Compound 21] |
| 700 to 1000 | O=P(O)(O)CP(=O)(O)CCCCCCCCCC1CO1 (centres unmarked) [Compound 22] |
| 700 to 1000 | C=CCCCCCCCCCP(=O)(O)C(CCCCC)P(=O)(O)O (centres unmarked) [Compound 23] |
| 700 to 1000 | O=P(O)(O)CP(=O)(O)CCCCCCCCCCCO [Compound 25] |
| 700 to 1000 | CCCCCCCCCCC(P(C)(=O)O)P(=O)(O)O (centres unmarked) [Compound 26] |
| 1000 to 1600 | NCCCCCCCCCCCP(=O)(O)CP(=O)(O)O [Compound 27] |

Second part, the compound before the results:

| Structure (SMILES) | IC50 [µM] |
| --- | --- |
| O=P(O)(O)CP(=O)(O)c1ccc(C(F)(F)F)cc1 [Compound 5] | < 100 |
| O=P(O)(O)CP(=O)(O)CCCCCCCCCC(Br)CBr (centres unmarked) [Compound 6] | < 100 |
| O=C1c2ccccc2C(=O)N1CCCCCCCCCCCP(=O)(O)CP(=O)(O)O [Compound 8] | < 100 |
| O=C(NCCCCCCCCCCCP(=O)(O)CP(=O)(O)O)c1ccc(OC(F)(F)F)cc1 [Compound 10] | 100 to 300 |
| O=P(O)(O)CP(=O)(O)CCCCCCCCCCCNS(=O)(=O)c1ccc(OC(F)(F)F)cc1 [Compound 14] | 100 to 300 |
| CCCCCCCCCC(CCCCCN)P(=O)(O)CP(=O)(O)O (centres unmarked) [Compound 18] | 300 to 700 |
| O=P(O)(O)CP(=O)(O)CCCC1CCCCC1 [Compound 19] | 300 to 700 |
| CCC(=O)NCCCCCCCCCCCP(=O)(O)CP(=O)(O)O [Compound 24] | 700 to 1000 |
| CCCCCCCCCC(CCCCCNC(=O)CC)P(=O)(O)CP(=O)(O)O (centres unmarked) [Compound 28] | 1000 to 1600 |
| O=P(O)(O)CP(=O)(O)CCCCCBr [Compound 29] | 1000 to 1600 |
| O=P(O)(O)CP(=O)(O)C/C=C/c1ccccc1 [Compound 30] | 1000 to 1600 |
| C=CCCCP(=O)(O)C(Cc1ccc(-c2ccccc2)cc1)P(=O)(O)O (centres unmarked) [Compound 32] | 1000 to 1600 |
| O=P(O)(O)CP(=O)(O)C1CCCCC1 [Compound 33] | > 1600 |
| C=CCCCP(=O)(O)CP(=O)(O)O [Compound 34] | > 1600 |
| C=CC(=O)NCCCCCCCCCCCP(=O)(O)CP(=O)(O)O [Compound 35] | > 1600 |
| C=CCCCP(=O)(O)C(CCCC1CCCCC1)P(=O)(O)O (centres unmarked) [Compound 36] | > 1600 |
